According to patent US20210179577A1, “AROMATIC SULFONAMIDE DERIVATIVES FOR THE TREATMENT OF ISCHEMIC STROKE” (Bayer Aktiengesellschaft, priority 2017, published 2021):

Tested on: Sprague Dawley (SD) rats
Experiment: tMCAO-Induced Ischemic Stroke Model in Rats
Format: in vivo, rat
Details: per os twice a day for seven days, from day 8 on, p<5% vs vehicle treated tMCAO-group
Method: Transient middle cerebral artery occlusion (tMCAO) was performed in approximately 3 months old male Sprague Dawley (SD) rats according to the method described by Schmid-Elsaesser et al. [Stroke. 1998; 29(10):2162-2170]. In particular, the right common carotid artery (CCA) was exposed through a midline neck incision and carefully dissected free from surrounding nerves and fascia—from its bifurcation to the base of the skull. […] The ECA was dissected further distally and coagulated along with the terminal lingual and maxillary artery branches, just before their bifurcation. The internal carotid artery (ICA) was isolated and carefully separated from the adjacent vagus nerve, and the pterygopalatine artery was ligated close to its origin with a 5-0 nylon suture. Thereafter, a 4-0 silk suture was tied loosely around the mobilized ECA stump, and a 4 cm length of Doccol 4-0 monofilament suture (coated with silicone) was inserted through the proximal ECA into the ICA and thence into the circle of Willis, effectively occluded the MCA. The surgical wound was closed and the animals were returned to their cages for recovery from anesthesia. Two hours after occlusion, rats were re-anesthetized and the monofilament was withdrawn to allow reperfusion. The wound was closed again and rats were returned to their cages.
Four groups of rats with 12-15 rats per group were included into the study. […]

SMILES: N#Cc1cnn(-c2ccc(NC(=O)Cc3ccccc3Cl)cc2S(N)(=O)=O)c1 [Example 39, 2-(2-Chlorophenyl)-N-[4-(4-cyano-1H-pyrazol-1-yl)-3-sulfamoylphenyl]acetamide]
- modified neurologic severity score (mNSS): significant smaller mNSS than the vehicle treated tMCAO-group
